# Source: paper PMC6445168, “Design, synthesis and antimalarial activity of novel bis{N-[(pyrrolo[1,2-a]quinoxalin-4-yl)benzyl]-3-aminopropyl}amine derivatives” (Journal of Enzyme Inhibition and Medicinal Chemistry, 2017)
# Where two headings read alike, the source gives them in different places.
# What was measured:
# [1] = tested on: P. falciparum CQ-resistant strain W2; assay: In vitro antiplasmodial activity, SYBR Green I fluorescence-based method, W2 strain; assay type: cell-based, Plasmodium falciparum; conditions: for IC50: Plasmodium falciparum, read-out: P. falciparum strains IC50 values, W2; for Selectivity Index HepG2/W2: ratio CC50 HepG2 / IC50 W2
# Procedure: (§1) The in vitro antiplasmodial activities were tested over concentrations ranging from 39 nM to 40 μM against culture-adapted Plasmodium falciparum reference strains 3D7 and W2. […] The parasites were cultivated in RPMI medium (Sigma-Aldrich, Lyon, France) supplemented with 0.5% Albumax I (Life Technologies corporation, Paisley, United Kingdom), hypoxanthine (Sigma-Aldrich), gentamicin (Sigma-Aldrich), and human erythrocytes and were incubated at 37 °C in a candle jar, as described previously. The P. falciparum drug susceptibility test was carried out in 96-well flat bottom sterile plates under a final volume of 250 μL. After a 48 h incubation with the drugs, quantities of DNA in treated and control cultures of parasites in human erythrocytes were compared according to the SYBR Green I (Sigma-Aldrich) fluorescence-based method[38]^,[39]. Briefly, after incubation, plates were frozen at -20 °C until use. They were then left to thaw for 2 h at room temperature and 100 μL of the homogenized culture were transferred to 96-well flat bottom sterile black plates (Nunc Inc) already containing 100 μL of the SYBR Green I lysis buffer (2xSYBR Green, 20 mM Tris base pH 7.5, 5 mM EDTA, 0.008% w/v saponin, 0.08% w/v Triton X-100). […] Plates were incubated for 1 h at room temperature and then read on a fluorescence plate reader (Tecan, Austria) using excitation and emission wavelengths of 485 and 535 nm, respectively.
# [2] = tested on: P. falciparum CQ-sensitive strain 3D7; assay: In vitro antiplasmodial activity, SYBR Green I fluorescence-based method, 3D7 strain; assay type: cell-based, Plasmodium falciparum; conditions: for IC50: Plasmodium falciparum, 3D7, 48 h, read-out: P. falciparum strains IC50 values, 3D7; for Selectivity Index HepG2/3D7: ratio CC50 HepG2 / IC50 3D7
# Procedure: as §1
# [3] = tested on: L. donovani (MHOM/IN/00/DEVI) promastigotes; assay: In vitro antileishmanial activity on promastigotes, MTT assay; assay type: cell-based; conditions: Leishmania donovani, 72 h incubation, mean ± SD of three independent experiments
# Procedure: L. donovani (MHOM/IN/00/DEVI) used in this study was provided by the CNR Leishmania (Montpellier, France). The effects of the tested compounds on the growth of L. donovani (MHOM/IN/00/DEVI)promastigotes were assessed by MTT assay[41] .Briefly, promastigotes in log-phase in Schneider′s medium supplemented with 20% fetal calf serum (FCS), 2 mM L-glutamine and antibiotics (100 U/mL penicillin and 100 μg/mL streptomycin), were incubated at an average density of 10^6 parasites/mL in sterile 96-well plates with various concentrations of compounds dissolved in DMSO (final concentration less than 0.5% v/v), in duplicate. Appropriate controls treated by DMSO and pentamidine or amphotericin B (reference drugs purchased from Sigma-Aldrich) were added to each set of experiments. After a 72 h incubation period at 27 °C, parasite metabolic activity was determined. Each plate-well was then microscope-examined for detecting possible precipitate formation. 20 μL of MTT 3–(4,5-dimethylthiazol-2-yl)-2,5-diphenyltetrazolium bromide) solution (5 mg/mL) were added to each well followed by incubation for another 4 h. The enzyme reaction was then stopped by addition of 100 μL of 50% isopropanol – 10% sodium dodecyl sulfate[42] .Plates were shaken vigorously (300 rpm) for 10 minutes and the absorbance measured in a plate reader at 570 nm in a BIO-TEK ELx808 Absorbance Microplate Reader. […] IC50 were calculated by non-linear regression analysis processed on doseresponse curves, using TableCurve 2D V5.0 software. IC50 values represent the mean value calculated from three independent experiments.
# [4] = Cytotoxicity evaluation, MTT assay; assay type: cell-based, human; conditions: human, HepG2 cells (hepatocarcinoma cell line, ATCC HB-8065); HepG2, 72 h incubation, mean ± SD of three independent experiments
# Procedure: (§2) These assays were performed toward the human HepG2 cell line (HepG2 CC50). […] These cells express many of the hepatocyte-specific metabolic enzymes, thus enabling the cytotoxicity of tested product metabolites to be evaluated. […] Duplicate assays were performed for each sample. Each plate-well was then microscope-examined for detecting possible precipitate formation before the medium was aspirated from the wells. 100 μL of MTT solution (0.5 mg/mL in medium without FCS) were then added to each well. […] After this time, the MTT solution was removed and DMSO (100 μL) was added to dissolve the resulting blue formazan crystals. Plates were shaken vigorously (300 rpm) for 5 minutes. The absorbance was measured at 570 nm with 630 nm as reference wavelength spectrophotometer using a BIO-TEK ELx808 Absorbance Microplate Reader. DMSO was used as blank and doxorubicin (Sigma Aldrich) as positive control. Cell viability was calculated as percentage of control (cells incubated without compound). The 50% cytotoxic concentration was determined from the dose-response curve by using the TableCurve 2D V5.0 software (Systat Software, San Jose, CA).
# [5] = tested on: Plasmodium telomeric quadruplex FPf1T; assay: FRET melting experiments, FPf1T; assay type: binding, Plasmodium falciparum; conditions: compound at 5 μM, 200 nM oligonucleotide, K+ condition; result in words
# Procedure: (§3) FRET melting experiments were performed with dual-labeled oligonucleotides mimicking the Plasmodium telomeric sequences FPf1T [FAM-^5′(GGGTTTA)3-GGG^3′-TAMRA] and FPf8T [FAM-^5′(GGGTTCA)3GGG^3′-TAMRA] and the human telomeric sequence F21T [FAM-(GGGTTA)3-GGG^3′- TAMRA][36]^,[43]. The oligonucleotides were prefolded in 10 mM lithium cacodylate buffer (pH 7.2), with 10 mM KCl and 90 mM LiCl (K^+ condition). […] The data obtained were normalized between 0 and 1, and the temperature required for half-denaturationof oligonucleotides corresponded to the emission value of 0.5 was calculated as ΔTm. Each experiment was performed in duplicate with 200 nM of labeled oligonucleotide and 0, 1, 2, or 5 μM of compound under K^+ condition. For each compound, two independent experiments were carried out. The data were plotted using OriginPro 9.1 software (OriginLab Corporation, Northampton, MA).
# [6] = tested on: Plasmodium telomeric quadruplex FPf8T; assay: FRET melting experiments, FPf8T; assay type: binding, Plasmodium falciparum; conditions: compound at 5 μM, 200 nM oligonucleotide, K+ condition; result in words
# Procedure: as §3
# [7] = tested on: human telomeric quadruplex F21T; assay: FRET melting experiments, F21T; assay type: binding; conditions: compound at 5 μM, 200 nM oligonucleotide, K+ condition; result in words
# Procedure: as §3
# [8] = tested on: HepG2 cell line; assay: Cytotoxicity evaluation, MTT assay; assay type: cell-based, human; conditions: HepG2, 72 h incubation, mean ± SD of three independent experiments
# Procedure: as §2
# [9] = chloroquine-resistant strain W2, 48 h incubation
# [10] = chloroquine-sensitive strain 3D7, 48 h incubation
Structure (SMILES),"IC50 [1, 9]",Selectivity Index HepG2/W2 [1],"IC50 [2, 10]",Selectivity Index HepG2/3D7 [2],IC50 [3],CC50 at 72 h [4],Thermal stabilization (ΔTm) on FPf1T [5],Thermal stabilization (ΔTm) on FPf8T [6],"IC50 ([1]; W2, 48 h)",IC50 [2],Thermal stabilization (ΔTm) on F21T [7],CC50 [8]
"COc1ccc2c(c1)nc(-c1ccc(CNCCCN3CCN(CCCNCc4ccc(-c5nc6cc(OC)ccc6n6cccc56)cc4)CC3)cc1)c1cccn12 [1e, Bis{N-[4–(7-methoxypyrrolo[1,2-a]quinoxalin-4-yl)benzyl]-3-aminopropyl}piperazine]",0.21 ± 0.03 µM,6.95,2.62 ± 0.25 µM,0.56,2.52 ± 0.1 µM,1.46 ± 0.6 µM,more active on the Plasmodium sequences with the higher ΔTm,more active on the Plasmodium sequences with the higher ΔTm,,,,
"COc1cccc2nc(-c3ccc(CNCCCN4CCN(CCCNCc5ccc(-c6nc7cccc(OC)c7n7cccc67)cc5)CC4)cc3)c3cccn3c12 [1i, Bis{N-[4–(9-methoxypyrrolo[1,2-a]quinoxalin-4-yl)benzyl]-3-aminopropyl}piperazine]",0.32 ± 0.04 µM,4.16,1.28 ± 0.1 µM,1.04,1.58 ± 0.1 µM,1.33 ± 0.3 µM,more active on the Plasmodium sequences with the higher ΔTm,more active on the Plasmodium sequences with the higher ΔTm,,,,
"CCN(CC)CCCC(C)Nc1ccnc2cc(Cl)ccc12 (stereo not shown) [Chloroquine, reference compound]",,,,,,,very slight stabilization,very slight stabilization,0.2 ± 0.03 µM,0.08 ± 0.003 µM,very slight stabilization,
"OC(c1cc(C(F)(F)F)nc2c(C(F)(F)F)cccc12)C1CCCCN1 (stereo not shown) [Mefloquine, reference compound]",0.032 ± 0.001 µM,,0.08 ± 0.008 µM,,,,very slight stabilization,very slight stabilization,,,very slight stabilization,
"N=C(N)c1ccc(OCCCCCOc2ccc(C(=N)N)cc2)cc1 [Pentamidine, reference compound]",,,,,5.5 ± 0.8 µM,,,,,,,2.3 ± 0.5 µM
